According to patent US20140155321A1, “Polypeptides and Their Use” (Novabiotics Limited, priority 2012, published 2014):
Read-outs that look alike come from different tables or passages of the source.

Legend:
[1] = system: Malassezia pachydermatis (CBS6536); settings: for positive skin cultures / approximate number of cfu from skin biopsies, Group ave.: 10 d post-infection, 5% (w/v) NP108 or 2% (w/v) miconazole topical; for approximate number of cfu from skin biopsies, Group ave.: 3 days incubation; for Group ave. Day+10 clinical score: topical once a day for 6 d from 48 h post-infection, 5% (w/v) NP108 or 2% (w/v) miconazole, score 3.0 = significant crusting/erythema
Experimental: Determination of the Efficacy of NP108 Against Malassezia pachydermatis (CBS6536) in a Murine Model of Localised Dermatophyte Skin Infection (10 Days Post-Infection)
In this Malassezia spp. skin infection study, 30 male CD1 mice (10 per treatment group) were scored daily for 10 d post-infection based on the clinical observations of the infected area. Mice were treated with test article, 5% (w/v) NP108, 2% (w/v) miconazole or vehicle commencing 48 h post-infection for 6 d. Groups of 10 mice were euthanized for culture of skin tissue 10 d post-infection. Skin samples were dissected into 10 pieces per mouse and each piece streaked onto Modified Leeming Notman agar (MLNA) for culture at 30° C. for up to 7 d. Data from these samples has been recorded as number positive for Malassezia pachydermatis CBS6536 growth per mouse and approximate number of quantifiable cfu per streaked sample; plates were read after 3 d and 7 d incubation. Test article NP108 was supplied as a 5% (w/v) dosing preparation in 65% PEG14000, supplied ready to administer without any reconstitution or dilution required, as was vehicle preparation also.

M. furfur DSMZ6170 [2] = assay: Antifungal efficacy in conditioner vehicles, surviving colony count; assay type: cell-based, Malassezia furfur; settings: for killing of M. furfur: 60 min exposure
Experimental: The antifungal efficacy of NP108 was tested in a conditioner vehicle. The following materials were tested: • 1. 10% (v/v) Head & Shoulders conditioner (anti-dandruff conditioner) • 2. 10% (v/v) Pantene conditioner (“normal” conditioner) • 3. 10% (v/v) Pantene conditioner (“normal” conditioner)+4% (w/v) NP 108 • 4. Phosphate Buffered Saline (PBS)
(§1) All yeast inocula for this experiment were prepared to the 0.5 McFarland Standard. 400 μl of yeast inoculum was exposed to 100 μl of the materials described above for 1 h at 37° C., followed by washing to remove all traces of the materials. Serial dilutions of the yeasts were prepared (10^0-10^−5; 10-fold dilutions) and 100 μl was spread on Modified Christensen's Medium and incubated at 30° C. for 48 h and numbers of surviving colonies counted. All experiments were carried out in triplicate.
(§2) In a further experiment, the effect of incubation time on killing of Malassezia spp. was investigated. The following materials were tested: • 1. 0.04% (w/v) Zinc Pyrithione in 19.2% (v/v) Head &Shoulders conditioner • 2. 1.0% (w/v) NP108 in 19.2% (v/v) Head & Shoulders conditioner • 3. 19.2% (v/v) Head & Shoulders conditioner
as §1, with “[…]” for “400 μl”, “above and incubated at 30° C.” for “above”, “for 0, 3, 10, 30 or 60 min,” for “for 1 h at 37° C.,”
In the following experiment, all samples of M. furfur DSMZ6170 (0.5 McFarland Standard) were exposed to 10% (v/v) H & S Conditioner, containing 10.0 (1.0%) mg/ml NP108 or 0.4 mg/ml zinc pyrithione (the active ingredient in H & S shampoo). The control samples were exposed to 10% (v/v) H & S Conditioner. The negative control samples were exposed to water alone (data not shown).
In the following experiment, all samples of M. furfur DSMZ6170 (0.5 McFarland Standard) were exposed to 10% (v/v) H & S Conditioner or 10% (v/v) Pantene Conditioner and a further treatment of 40 mg/ml NP108 (4.0%) in 10% (v/v) Pantene Conditioner. The control sample was exposed to PBS alone. All incubations were carried out for 60 min.

M. furfur DSMZ6170 [3] = settings: 0.4 mg/ml zinc pyrithione, under in vitro conditions (not in conditioner)
[4] = system: M. pachydermatis NCPF3667; assay: MIC by modified CLSI M27-A3 broth dilution versus M. pachydermatis NCPF3667; assay type: cell-based, Malassezia pachydermatis; settings: Table 2
Experimental: (§3) The minimum inhibitory concentration (MIC) of all materials was determined according to methods described in the Clinical and laboratory Standards institute Approved Standard “Reference Method for Broth Dilution Antifungal Susceptibility Testing of Yeasts—Third Edition (M27-A3)” with the following modifications. In place of RPMI-1640 liquid medium, Modified Christensen's Medium, without the addition of agar, was used.

[5] = system: human dermal fibroblast (BJ) cells; assay: Cytotoxicity versus human dermal fibroblast (BJ) cells; assay type: cell-based; settings: BJ fibroblasts
Experimental: (§4) Haematotoxicity versus 10% human red blood cells and cyctotoxicity versus human dermal fibroblast (BJ) cells and human lung epithelial (A549) cells was determined by standard in vitro procedures known to those skilled in the art (Table 1 and FIG. 1).

M. furfur DSMZ6170 [6] = assay: MIC by modified CLSI M27-A3 broth dilution versus M. furfur DSMZ6170; assay type: cell-based, Malassezia furfur
Experimental: as §3

M. furfur DSMZ6170 [7] = assay: Antifungal efficacy in a shampoo vehicle, surviving colony count; assay type: cell-based, Malassezia furfur; settings: 40 mg/ml NP108 in 10% (v/v) Pantene shampoo; 60 min exposure; FIG. 5
Experimental: The antifungal efficacy of NP108 was tested in a shampoo vehicle. The following materials were tested: • 1. 10% (v/v) Head & Shoulders shampoo (anti-dandruff shampoo) • 2. 10% (v/v) Pantene shampoo (“normal” shampoo) • 3. 10% (v/v) Pantene shampoo (“normal” shampoo)+4% (w/v) NP108 • 4. Phosphate Buffered Saline (PBS)
as §1, with “yeast inocula” for “yeasts”
In the following experiment, all samples of M. furfur DSMZ6170 (0.5 McFarland Standard) were exposed to 10% (v/v) Head & Shoulders (H & S) Shampoo, 10% (v/v) Pantene Shampoo and 10% (v/v) Pantene Shampoo containing 40.0 (4.0%) mg/ml NP108. The negative control samples were exposed to phosphate-buffered saline (PBS) alone. H & S Shampoo contains zinc pyrithione (˜1%) as an antifungal agent proven to kill Malassezia spp.

M. pachydermatis CBS6536 [8] = assay: Antifungal efficacy in Head & Shoulders conditioner, surviving colony count; assay type: cell-based, Malassezia pachydermatis; settings: FIG. 6
Experimental: as §2
as §1, with “[…]” for “400 μl”, “above and incubated at 30° C.” for “above”, “for 0, 3, 10, 30 or 60 min,” for “for 1 h at 37° C.,”
In the following experiment, all samples of M. pachydermatis CBS6536 (0.5 McFarland Standard) were exposed to 10% (v/v) Head & Shoulders (H & S) Conditioner, containing 0 (0%), 1.0 (0.1%) or 10.0 (1.0%) mg/ml NP108. The positive control samples were exposed to 10% (v/v) Head & Shoulders Conditioner. The negative control samples were exposed to water alone.

human red blood cells = assay: Haematotoxicity (haemolysis) versus 10% human red blood cells; assay type: cell-based
Experimental: as §4

M. pachydermatis CBS6536 [9] = assay: MIC by modified CLSI M27-A3 broth dilution versus M. pachydermatis CBS6536; assay type: cell-based, Malassezia pachydermatis
Experimental: as §3

[10] = Table 1, 1×10^6-5×10^6 cells/ml, Modified Christensen's Medium
[11] = Table 2, M. pachydermatis CBS6536

## Clc1ccc(COC(Cn2ccnc2)c2ccc(Cl)cc2Cl)c(Cl)c1 (centres unmarked) [miconazole, reference compound]
[1]
  positive skin cultures: 100%
  approximate number of cfu from skin biopsies, Group ave.: 131.4 cfu/mouse
  Group ave. Day+10 clinical score: 1.31

## zinc pyrithione [reference compound]
M. furfur DSMZ6170 [2]; 0.4 mg/ml zinc pyrithione in H & S conditioner, FIG. 7
  antifungal activity: no antifungal activity
M. furfur DSMZ6170 [3]
  killing of M. furfur: sufficient to kill

## Poly-L-Lysine [NP108]
[4]
  MIC50 Median: 15.6 µg/mL
  MIC80 Median: 15.6 to 31.3 µg/mL
  MIC100 Median: 31.3 µg/mL
M. furfur DSMZ6170 [2]; 10 mg/ml NP108 (1.0%) in H & S conditioner, FIG. 7
  killing of M. furfur: Complete killing
M. furfur DSMZ6170 [2]; 10 mg/ml NP108 (1.0%) in H & S conditioner, after as little as 3 min exposure, time-dependent increase, FIG. 7
  antifungal activity: demonstrates antifungal activity
M. furfur DSMZ6170 [2]; 40 mg/ml NP108 (4.0%) in 10% (v/v) Pantene conditioner, FIG. 8
  killing of M. furfur: completely killing
[5]
  Cytotoxicity (BJ; LD50): 4,500 μg/ml
M. furfur DSMZ6170 [6]; Table 2
  MIC50 Median: 250 µg/mL
  MIC80 Median: 1000 µg/mL
  MIC80 Range: 500 to 2000 µg/mL
  MIC100 Median: 2000 µg/mL
  MIC100 Range: 2000 to 4000 µg/mL
M. furfur DSMZ6170 [6]; Table 2, three independent experiments
  MIC50 Range: 125 to 500 µg/mL
M. furfur DSMZ6170 [7]
  killing of M. furfur (surviving cfu/ml): kills
M. pachydermatis CBS6536 [8]; 1 mg/ml NP108 (0.1%) in H & S conditioner
  antifungal activity: no antifungal activity
M. pachydermatis CBS6536 [8]; 10 mg/ml NP108 (1.0%) in H & S conditioner, after as little as 3 min exposure
  killing of M. pachydermatis: kills
Human red blood cells
  Haemolysis (LD50): >10,000 μg/ml
[1]; 5% (w/v) NP108 in 65% PEG14000, topical, throughout the study
  tolerability of treatment: well tolerated
[1]
  positive skin cultures: 84%
  approximate number of cfu from skin biopsies, Group ave.: 34.6 cfu/mouse
  Group ave. Day+10 clinical score: 0.65
M. pachydermatis CBS6536 [9]; [10]
  MIC50: 62.5 to 125 µg/mL
  MIC80: 62.5 to 125 µg/mL
  MIC100: 125 µg/mL
M. pachydermatis CBS6536 [9]; [11]
  MIC50 Median: 31.25 µg/mL
  MIC80 Median: 62.5 µg/mL
  MIC80 Range: 31.25 to 125 µg/mL
  MIC100 Median: 62.5 µg/mL
  MIC100 Range: 31.25 to 125 µg/mL
M. pachydermatis CBS6536 [9]; Table 2, M. pachydermatis CBS6536, three independent experiments
  MIC50 Range: 15.63 to 31.25 µg/mL
